Patent US10525055B2, “Opioid receptor antagonist prodrugs” (Nirsum Laboratories, Inc., priority 2017, dated 2020)

Assays:
DOR = target: T1, DOR (Homo sapiens, UniProt P41143); assay: Opioid receptor binding assay, DOR ([3H]-DADLE); details: DOR
T1 construct: expressed in transfected cells; membranes prepared from them

KOR = target: T2, KOR (Homo sapiens, UniProt P41145); assay: Opioid receptor binding assay, KOR ([3H]Diprenorphine); details: KOR
T2 construct: expressed in transfected cells; membranes prepared from them
T2 sequence (P41145 whole entry): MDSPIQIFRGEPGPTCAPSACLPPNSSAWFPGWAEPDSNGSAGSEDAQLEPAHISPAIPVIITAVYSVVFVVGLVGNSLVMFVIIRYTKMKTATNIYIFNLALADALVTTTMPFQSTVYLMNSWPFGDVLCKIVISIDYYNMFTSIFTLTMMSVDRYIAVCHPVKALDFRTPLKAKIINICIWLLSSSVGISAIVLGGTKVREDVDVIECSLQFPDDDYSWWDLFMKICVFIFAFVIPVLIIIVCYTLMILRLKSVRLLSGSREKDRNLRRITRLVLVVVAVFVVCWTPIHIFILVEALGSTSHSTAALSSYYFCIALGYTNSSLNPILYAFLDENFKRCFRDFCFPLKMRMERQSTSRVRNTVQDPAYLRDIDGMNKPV

[1] = Solubility determination in oil (cottonseed oil, sesame oil); details: heating temp. 60 °C, obs. temp. 25 °C
Experimental: A known amount of test substance (˜40 mg) was weighed into the vial, 100 μL of oil was added and heated to 60° C. and then system was slurried to reach equilibrium. […] Extra oil was added into the vial once compound precipitated out and then the system was re-equilibrated at 1000 rpm at room temperature (25° C.). Final concentration was determined by HPLC method as described below in Table 6a and 6b.

MOR = target: T3, MOR (Homo sapiens, UniProt P35372); assay: Opioid receptor binding assay, MOR ([3H]DAMGO); details: MOR
T3 construct: expressed in transfected cells; membranes prepared from them
T3 sequence (P35372 whole entry): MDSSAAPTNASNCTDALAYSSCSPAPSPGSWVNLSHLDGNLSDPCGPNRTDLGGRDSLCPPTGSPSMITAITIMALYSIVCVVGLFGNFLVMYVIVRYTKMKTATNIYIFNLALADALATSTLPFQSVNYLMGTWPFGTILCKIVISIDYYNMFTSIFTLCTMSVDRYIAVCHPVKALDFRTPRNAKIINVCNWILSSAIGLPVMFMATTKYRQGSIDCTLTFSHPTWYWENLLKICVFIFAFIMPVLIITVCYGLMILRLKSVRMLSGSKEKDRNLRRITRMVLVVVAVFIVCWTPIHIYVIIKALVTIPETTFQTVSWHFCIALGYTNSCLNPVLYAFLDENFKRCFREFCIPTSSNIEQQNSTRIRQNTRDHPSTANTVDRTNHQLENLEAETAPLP

[2] = Plasma stability assay, rat plasma; type: in vitro ADME; details: 37° C., 10 μM
Experimental: Plasma stability determination of the test compounds in rat, dog, cynomolgus monkey and human plasma is performed using HPLC-MS. For rat, incubations are carried out in 96-well polypropylene plates in 5 aliquots of 70 μL each (one for each time point). […] Five time points are analyzed (0, 15, 120, 480 and 1440 min). For dog, monkey and human, test compounds (2 μM, final solvent concentration 1%) were also incubated at 37° C. and analyzed at five time points (0, 10, 30, 60 and 120 min). All incubations are performed in duplicates. The samples are analyzed by HPLC-MS. The percentage of parent compound remaining after incubation in plasma is determined.

[3] = Polymorph screening of solid state drug substances; details: for XRPD results (Dried): stirred 50 °C 72 hours, solids dried; for Visual observation 50° C. / Visual observation RT: target conc. 100 mg/ml
[4] = Physical characterization of solid state drug substance (PLM, XRPD, DSC, TGA); type: physicochemical; details: solid state drug substance, XRPD/PLM
Experimental: The analysis of the physical characteristics of drug substances that were in a solid state was conducted using polarized light microscopy (PLM), X-ray powder diffractometer (XRPD) assessment, Differential Scanning calorimetry (DSC) and Thermal Gravimetric Analysis (TGA). For PLM, samples were dispersed in immersion oil and were observed using an ocular lens (10×) and objective lens (20×) under crossed polarizers. For XRPD, samples were run on a diffractometer using the following method: Tube—Cu: K-alpha (λ=1.54179 Å); Generator—Voltage 40 kV, Current 40 mA; Scan scope—3 to 40°; sample rotation speed—15 rpm; scanning rate—10 deg/min. For DSC, ˜1 mg of sample was tested using a crimped aluminum pan and covered by a lid with a hole, heated from room temperature to 300° C. at a speed of 10° C./minute. For TGA, 2-5 mg of sample was placed in an open platinum pan and heated from room temperature to 300° C. at a rate of 10° C./minute.

[5] = Dog pharmacokinetic studies, deep intramuscular; type: in vivo, Beagle dogs; details: dog IM, Cottonseed + 1% Benzyl Alcohol
Experimental: The purpose of this study is to determine the pharmacokinetics of test compounds in plasma, following deep intramuscular administration to Beagle dogs (n=3, unless otherwise specified).
The dose formulation (concentration−400 mg base equivalents/ml in sesame oil+1% benzyl alcohol, unless otherwise specified) was administered via deep intramuscularly (unless otherwise specified). The injection vehicle was also dosed via deep intramuscular route (unless otherwise specified) on contralateral site of each animal at study initiation. The animals were sedated with Propofol at 6 mg/kg via IV administration. Following sedation hair was carefully removed from around the injection site and the area gently cleaned. Care will be taken to avoid irritating skin during shaving and cleaning the injection site. Then dogs will be dosed with deep IM administration. At least 2.5 cm depth from the surface into the central aspect of the quadriceps or biceps femoris muscle, by angling the needle toward the femur. If the needle hits the femur, simply draws back slightly and then inject. The dose volume will be determined by the animals' body weight collected on the morning of dosing day. For repeated administration, the injection sites may be rotated to minimize tissue injury.
Blood samples were collected from a peripheral vessel from restrained, non-sedated animals per sampling time point.
Approximately 0.8 mL blood will be collected at each time point.
Each collected blood sample was centrifuged for 4 minutes at 4° C. and 10000 rpm for plasma collection. Plasma was collected and transferred into a pre-labeled PP tube in dry ice at each time point and precipitated immediately using ACN at a ratio of 1:4 (plasma:ACN). Centrifuged again (10 minutes, 12000 rpm) and obtain the supernatant.
After terminal collection, all supernatant was stored at approximately −80° C. F until bioanalysis.
LC-MS/MS methods for the quantitative determination of test compound in biological matrix were developed. […] The sample analysis was performed concurrently with a set of calibration standards and two sets of QC samples using the LC-MS/MS method.
Plasma concentration versus time data was analyzed by non-compartmental approaches using the Phoenix WinNonlin 6.3 software program. Cmax, Tmax, T1/2, AUC(0-t), AUC(0-inf), MRT(0-t), MRT(0-inf) and graphs of plasma concentration versus time profile were prepared.

T1 sequence (P41143 whole entry): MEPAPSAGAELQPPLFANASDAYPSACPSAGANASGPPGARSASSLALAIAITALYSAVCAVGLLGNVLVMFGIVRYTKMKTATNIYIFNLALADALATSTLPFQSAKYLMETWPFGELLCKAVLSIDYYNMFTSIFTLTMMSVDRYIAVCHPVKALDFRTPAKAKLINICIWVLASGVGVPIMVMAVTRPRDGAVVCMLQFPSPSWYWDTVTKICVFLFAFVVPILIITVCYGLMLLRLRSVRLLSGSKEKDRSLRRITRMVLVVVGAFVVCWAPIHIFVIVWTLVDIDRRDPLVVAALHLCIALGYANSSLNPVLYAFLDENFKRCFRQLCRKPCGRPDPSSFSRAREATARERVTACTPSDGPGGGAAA

SMILES | %Inh@MaxDose (DOR; MaxDose 10000 nM) [%] | %Inh@MaxDose (KOR; MaxDose 10000 nM) [%] | Approximate Solubility (mg/mL) in Excipient: Sesame oil [1] [mg/mL] | %Inh@MaxDose (MOR; MaxDose 10000 nM) [%] | % remaining at time point in minutes, 0 min [2] [%] | % remaining at time point in minutes, 15 min [2] [%] | % remaining at time point in minutes, 120 min [2] [%] | % remaining at time point in minutes, 480 min [2] [%] | % remaining at time point in minutes, 1440 min [2] [%] | further results
CCCCCCCCOC(=O)Oc1ccc2c3c1O[C@H]1C(=O)CC[C@@]4(O)C(C2)N(CC2CC2)CC[C@]314 [Compound 23, (4aS,7aR,12bS)-3-(cyclopropylmethyl)-4a-hydroxy-7-oxo-2,3,4,4a,5,6,7,7a-octahydro-1H-4,12-methanobenzofuro[3,2-e]isoquinolin-9-yl octyl carbonate] | 95.6 | 101.6 | >423.9 | 98.7 | 10 | 0 | 0 | 0 | 0 | Approximate Solubility (mg/mL) in Excipient: Cottonseed oil ([1]; Cottonseed oil): >407.7 mg/mL
C=C1CC[C@@]2(O)C3Cc4ccc(OCOC(=O)OCCCCCCCCCCCCCC)c5c4[C@@]2(CCN3CC2CC2)[C@H]1O5 [Compound 25, (((4aS,7aS,12bS)-3-(cyclopropylmethyl)-4a-hydroxy-7-methylene-2,3,4,4a,5,6,7,7a-octahydro-1H-4,12-methanobenzofuro[3,2-e]isoquinolin-9-yl)oxy)methyl tetradecyl carbonate] | 62 | 76.9 |  | 87.3 | 100 | 82.6 | 69.3 | 62.2 | 51.7 | 
C=C1CC[C@@]2(O)C3Cc4ccc(OC(=O)OCCCCCCCCCCCCC)c5c4[C@@]2(CCN3CC2CC2)[C@H]1O5 [Compound 30, (4aS,7aS,12bS)-3-(cyclopropylmethyl)-4a-hydroxy-7-methylene-2,3,4,4a,5,6,7,7a-octahydro-1H-4,12-methanobenzofuro[3,2-e]isoquinolin-9-yl tridecyl carbonate] | 84.3 | 97.6 | 252.55 to 398.6 | 82.5 | 100 | 65.7 | 40.3 | 30.5 | 22.2 | 
C=C1CC[C@@]2(O)C3Cc4ccc(OC(=O)OCCCCCCCCCCCCCCC)c5c4[C@@]2(CCN3CC2CC2)[C@H]1O5 [Compound 32, (4aS,7aS,12bS)-3-(cyclopropylmethyl)-4a-hydroxy-7-methylene-2,3,4,4a,5,6,7,7a-octahydro-1H-4,12-methanobenzofuro[3,2-e]isoquinolin-9-yl pentadecyl carbonate] |  | 80.1 | >410 | 75.9 |  |  |  |  |  | 
C=C1CC[C@@]2(O)C3Cc4ccc(OC(=O)NC(C)(C)C)c5c4[C@@]2(CCN3CC2CC2)[C@H]1O5 [Compound 40, (4aS,7aS,12bS)-3-(cyclopropylmethyl)-4a-hydroxy-7-methylene-2,3,4,4a,5,6,7,7a-octahydro-1H-4,12-methanobenzofuro[3,2-e]isoquinolin-9-yl tert-butylcarbamate] |  |  |  |  |  |  |  |  |  | XRPD results (Dried) ([3]; Acetone): Amorphous; Visual observation 50° C. ([3]; Acetone): Clear; Visual observation RT ([3]; Acetone): Slurry; XRPD results (Dried) ([3]; EtOAc): Pattern A; Visual observation 50° C. ([3]; EtOAc): Clear; Visual observation RT ([3]; EtOAc): Slurry; XRPD results (Dried) ([3]; Heptane): Pattern A; Visual observation 50° C. ([3]; Heptane): Slurry; Visual observation RT ([3]; Heptane): Slurry; XRPD results (Dried) ([3]; Isopropanol): Amorphous; Visual observation 50° C. ([3]; Isopropanol): Clear; Visual observation RT ([3]; Isopropanol): Slurry; XRPD results (Dried) ([3]; MTBE): Amorphous; Visual observation 50° C. ([3]; MTBE): Clear; Visual observation RT ([3]; MTBE): Clear; Comment: stability of initial crystal form (pattern A) ([3]; polymorph screen over Heptane, MTBE, Isopropanol, EtOAc, Acetone): stable form. Same crystal form; X-ray Powder Diffraction [4]: Crystal form with partial
C=C1CC[C@@]2(O)C3Cc4ccc(OCOC(=O)CCCCCCCCCCC)c5c4[C@@]2(CCN3CC2CC2)[C@H]1O5 [Compound 44, (((4aS,7aS,12bS)-3-(cyclopropylmethyl)-4a-hydroxy-7-methylene-2,3,4,4a,5,6,7,7a-octahydro-1H-4,12-methanobenzofuro[3,2-e]isoquinolin-9-yl)oxy)methyl dodecanoate] | 79.1 | 99.2 |  | 83.1 |  |  |  |  |  | 
C=C1CC[C@@]2(O)C3Cc4ccc(OCOC(=O)CCCCCCCCCCCCC)c5c4[C@@]2(CCN3CC2CC2)[C@H]1O5 [Compound 45, (((4aS,7aS,12bS)-3-(cyclopropylmethyl)-4a-hydroxy-7-methylene-2,3,4,4a,5,6,7,7a-octahydro-1H-4,12-methanobenzofuro[3,2-e]isoquinolin-9-yl)oxy)methyl tetradecanoate] | 71.8 | 100.1 |  | 93.7 |  |  |  |  |  | AUC0-inf (ng · h/mL) prodrug ([5]; 30 mg/kg): 0.1 µg·h/mL; Half-life t1/2 (hour) prodrug ([5]; 30 mg/kg): 151 h; AUC0-inf (ng · h/mL) prodrug ([5]; 48 mg/kg): 0.267 µg·h/mL; Half-life t1/2 (hour) prodrug ([5]; 48 mg/kg): 171 h
C=C1CC[C@@]2(O)C3Cc4ccc(OCOC(=O)CCCCCCCCCCCCCCC)c5c4[C@@]2(CCN3CC2CC2)[C@H]1O5 [Compound 46, (((4aS,7aS,12bS)-3-(cyclopropylmethyl)-4a-hydroxy-7-methylene-2,3,4,4a,5,6,7,7a-octahydro-1H-4,12-methanobenzofuro[3,2-e]isoquinolin-9-yl)oxy)methyl hexadecanoate] | 72.3 | 101.8 |  | 102.3 |  |  |  |  |  | 
C=C1CC[C@@]2(O)[C@H]3Cc4ccc(O)c5c4[C@@]2(CCN3CC2CC2)[C@H]1O5 [nalmefene, 17-cyclopropylmethyl-4,5α-epoxy-6-methylenemorphinan-3,14-diol, reference compound] |  |  |  |  |  |  |  |  |  | %Inh@MaxDose (DOR; MaxDose 1000 nM): 94.5%; %Inh@MaxDose (KOR; MaxDose 1000 nM): 103%; %Inh@MaxDose (MOR; MaxDose 1000 nM): 103.5%
